Results reported in patent US20230129721A1, “STABILIZER FOR RADIOPHARMACEUTICALS AND RADIOPHARMACEUTICAL COMPOSITION COMPRISING THE SAME” (THE ASAN FOUNDATION, priority 2020, published 2023).

What was measured:
[1] = Radiochemical purity of [^18F]PI-2620 radiopharmaceutical composition over time at 40° C. by HPLC; format: physicochemical
Method: Fluoride ([^18F]) and 2 mg of a precursor were dissolved in dimethyl sulfoxide, and the reaction mixture was fluorinated using an SN2 reaction at a temperature of 100° C. or higher. Then, a protecting group was hydrolyzed with sulfuric acid, and the mixture was neutralized with sodium hydroxide, purified using high-performance liquid chromatography (HPLC) (purification conditions: Luna C18 250×10 mm, phosphate buffer:acetonitrile=70:30 (v/v), 5.0 mL/min, UV=254 nm), and then formulated (formulation composition: 100 mg of sodium ascorbate, 2 nM phosphate buffer, and 10% ethanol) to obtain the [^18F]PI-2620 compound having a radiochemical purity of 100% (FIG. 1).
[^18F]PI-2620 was formulated with ethanol, ascorbic acid, and a phosphate buffer, and the radiochemical purity of the radiopharmaceutical composition was then measured at the elapsed times of 0 hour, 2 hours, 4 hours, and 6 hours at a temperature of 40° C. using HPLC (analysis conditions: Luna C18 250×4.6 mm, phosphate buffer:acetonitrile=60:40 (v/v), 1.0 mL/min, UV=254 nm).
[^18F]PI-2620 was obtained as a compound having a radiochemical purity of 100% in the same manner as in Example 1. To further confirm the stability of the compound, 2 equivalents of sodium ascorbate used in Example 1 was added during a formulation process (formulation composition: 200 mg of sodium ascorbate, a 2 nM phosphate buffer, and 10% ethanol), and the radiochemical purity of the radiopharmaceutical composition was then measured in the same manner as in Example 1 at the elapsed times of 0 hour, 2 hours, 4 hours, and 6 hours at a temperature of 40° C. using high-performance liquid chromatography (HPLC)
[^18F]PI-2620 was obtained as a compound having a radiochemical purity of 100% in the same manner as in Example 1. To check the causes of a decrease in radiochemical purity, the radiochemical purity of the radiopharmaceutical composition was then measured in the same manner as in Example 1 at the elapsed times of 0 hour, 2 hours, 4 hours, and 6 hours at a temperature of 40° C. under three formulation conditions (Condition 1: ethanol and water for injection (formulation composition: 10% ethanol); Condition 2: ethanol and a phosphate buffer (formulation composition: a 2 nM phosphate buffer and 10% ethanol); Condition 3: ethanol and a 2×phosphate buffer (formulation composition: a 4 nM phosphate buffer and 10% ethanol)) using high-performance liquid chromatography (HPLC).
[^18F]PI-2620 was obtained as a compound having a radiochemical purity of 98% or more in the same manner as in Example 1. As a novel stabilizing agent, vitamin B1 (VB1), vitamin B6 (VB6), vitamin B8 (VB8), vitamin B10 (VB10), or vitamin B12 (VB12) (formulation composition: 10% ethanol and a 50 mg/mL vitamin concentration) was added to ethanol and water for injection, and the radiochemical purity of the radiopharmaceutical composition was measured in the same manner as in Example 1 at the elapsed times of 0 hour, 2 hours, 4 hours, and 6 hours at a temperature of 40° C. using high-performance liquid chromatography (HPLC). A preparation including no vitamin B was used as the control.
[^18F]PI-2620 was obtained as a compound having a radiochemical purity of 98% or more in the same manner as in Example 1, and formulated with ethanol and a phosphate buffer (formulation composition: a 2 nM phosphate buffer and 10% ethanol). As a novel stabilizing agent, vitamin B1 (VB1), vitamin B6 (VB6), vitamin B8 (VB8), or vitamin B10 (VB10) was added at a concentration of 50 mg/mL, and the radiochemical purity of the radiopharmaceutical composition was measured in the same manner as in Example 1 at the elapsed times of 0 hour, 2 hours, 4 hours, and 6 hours at a temperature of 40° C. using high-performance liquid chromatography (HPLC). A preparation in which sodium ascorbate was added to the same concentrations of ethanol and phosphate buffer was used as the control. […]

[2] = pH (paper) of [^18F]PI-2620 radiopharmaceutical composition over time at 40° C.; format: physicochemical
[3] = [^18F]PI-2620, ethanol and water for injection (10% ethanol), 50 mg/mL vitamin, no phosphate buffer, 0 hr
[4] = [^18F]PI-2620, ethanol and water for injection (10% ethanol), 50 mg/mL vitamin, no phosphate buffer, 2 hr
[5] = [^18F]PI-2620, ethanol and water for injection (10% ethanol), 50 mg/mL vitamin, no phosphate buffer, 4 hr
[6] = [^18F]PI-2620, ethanol and water for injection (10% ethanol), 50 mg/mL vitamin, no phosphate buffer, 6 hr
[7] = 10% ethanol, water for injection, 50 mg/mL vitamin, 0 hr
[8] = 10% ethanol, water for injection, 50 mg/mL vitamin, 2 hr
[9] = 10% ethanol, water for injection, 50 mg/mL vitamin, 4 hr
[10] = 10% ethanol, water for injection, 50 mg/mL vitamin, 6 hr
[11] = [^18F]PI-2620, 2 nM phosphate buffer and 10% ethanol, vitamin 50 mg/mL (control: sodium ascorbate), 0 hr
[12] = [^18F]PI-2620, 2 nM phosphate buffer and 10% ethanol, vitamin 50 mg/mL (control: sodium ascorbate), 2 hr
[13] = [^18F]PI-2620, 2 nM phosphate buffer and 10% ethanol, vitamin 50 mg/mL (control: sodium ascorbate), 4 hr
[14] = [^18F]PI-2620, 2 nM phosphate buffer and 10% ethanol, vitamin 50 mg/mL (control: sodium ascorbate), 6 hr
[15] = 2 nM phosphate buffer and 10% ethanol, vitamin 50 mg/mL (control: sodium ascorbate), 0 hr
[16] = 2 nM phosphate buffer and 10% ethanol, vitamin 50 mg/mL (control: sodium ascorbate), 2 hr
[17] = 2 nM phosphate buffer and 10% ethanol, vitamin 50 mg/mL (control: sodium ascorbate), 4 hr
[18] = 2 nM phosphate buffer and 10% ethanol, vitamin 50 mg/mL (control: sodium ascorbate), 6 hr

Row | Structure (SMILES) | Purity (radiochemical purity) [1, 3] | Purity (radiochemical purity) [1, 4] | Purity (radiochemical purity) [1, 5] | Purity (radiochemical purity) [1, 6] | PH (paper) [2, 7] | PH (paper) [2, 8] | PH (paper) [2, 9] | PH (paper) [2, 10] | Purity (radiochemical purity) [1, 11] | Purity (radiochemical purity) [1, 12] | Purity (radiochemical purity) [1, 13] | Purity (radiochemical purity) [1, 14] | PH (paper) [2, 15] | PH (paper) [2, 16] | PH (paper) [2, 17] | PH (paper) [2, 18] | further results
1 | O=C1O[C@H]([C@@H](O)CO)C([O-])=C1O.[Na+] [Na ascorbate, sodium ascorbate] |  |  |  |  |  |  |  |  | 99.05% | 95.53% | 93.77% | 90.04% | 6 | 6 | 6 | 6 | Purity (radiochemical purity) ([1]; [^18F]PI-2620, 100 mg sodium ascorbate, 2 nM phosphate buffer, 10% ethanol, 0 hr): 99.05%; Purity (radiochemical purity) ([1]; [^18F]PI-2620, 100 mg sodium ascorbate, 2 nM phosphate buffer, 10% ethanol, 2 hr): 95.53%; Purity (radiochemical purity) ([1]; [^18F]PI-2620, 100 mg sodium ascorbate, 2 nM phosphate buffer, 10% ethanol, 4 hr): 93.77%; Purity (radiochemical purity) ([1]; [^18F]PI-2620, 100 mg sodium ascorbate, 2 nM phosphate buffer, 10% ethanol, 6 hr): 90.04%; Purity (radiochemical purity) ([1]; [^18F]PI-2620, 200 mg sodium ascorbate, 2 nM phosphate buffer, 10% ethanol, 0 hr): 99.47%; Purity (radiochemical purity) ([1]; [^18F]PI-2620, 200 mg sodium ascorbate, 2 nM phosphate buffer, 10% ethanol, 2 hr): 96.95%; Purity (radiochemical purity) ([1]; [^18F]PI-2620, 200 mg sodium ascorbate, 2 nM phosphate buffer, 10% ethanol, 4 hr): 95.25%; Purity (radiochemical purity) ([1]; [^18F]PI-2620, 200 mg sodium ascorbate, 2 nM phosphate buffer, 10% ethanol, 6 hr): 93.00%; PH (paper) ([2]; 100 mg sodium ascorbate, 2 nM phosphate buffer, 10% ethanol, 0 hr): 6; PH (paper) ([2]; 100 mg sodium ascorbate, 2 nM phosphate buffer, 10% ethanol, 2 hr): 6; PH (paper) ([2]; 100 mg sodium ascorbate, 2 nM phosphate buffer, 10% ethanol, 4 hr): 6; PH (paper) ([2]; 100 mg sodium ascorbate, 2 nM phosphate buffer, 10% ethanol, 6 hr): 6; PH (paper) ([2]; 200 mg sodium ascorbate, 2 nM phosphate buffer, 10% ethanol, 0 hr): 6; PH (paper) ([2]; 200 mg sodium ascorbate, 2 nM phosphate buffer, 10% ethanol, 2 hr): 6; PH (paper) ([2]; 200 mg sodium ascorbate, 2 nM phosphate buffer, 10% ethanol, 4 hr): 6; PH (paper) ([2]; 200 mg sodium ascorbate, 2 nM phosphate buffer, 10% ethanol, 6 hr): 6
2 | [18F]c1cc(-c2ccc3c(n2)[nH]c2ccncc23)ccn1 [[^18F]PI-2620] |  |  |  |  |  |  |  |  |  |  |  |  |  |  |  |  | Purity (radiochemical purity) ([1]; [^18F]PI-2620 under three formulation conditions (ethanol with or without phosphate buffer), 6 hr): not decomposed at a high temperature

The next lines start with results.

Row | Purity (radiochemical purity) [1, 3] | Purity (radiochemical purity) [1, 4] | Purity (radiochemical purity) [1, 5] | Purity (radiochemical purity) [1, 6] | PH (paper) [2, 7] | PH (paper) [2, 8] | PH (paper) [2, 9] | PH (paper) [2, 10] | Purity (radiochemical purity) [1, 11] | Purity (radiochemical purity) [1, 12] | Purity (radiochemical purity) [1, 13] | Purity (radiochemical purity) [1, 14] | PH (paper) [2, 15] | PH (paper) [2, 16] | PH (paper) [2, 17] | PH (paper) [2, 18] | Structure (SMILES) | further results
3 | 98.33% | 98.99% | 98.7% | 98.29% | 6 | 7.5 | 6.5 | 6.5 |  |  |  |  |  |  |  |  | C/C1=C2/[N-][C@H]([C@H](CC(N)=O)[C@@]2(C)CCC(=O)NC[C@H](C)OP(=O)([O-])O[C@H]2[C@@H](O)[C@@H](n3cnc4cc(C)c(C)cc43)O[C@@H]2CO)[C@]2(C)N=C(/C(C)=C3N=C(/C=C4N=C1[C@@H](CCC(N)=O)C\4(C)C)[C@@H](CCC(N)=O)[C@]\3(C)CC(N)=O)[C@@H](CCC(N)=O)[C@]2(C)CC(N)=O.[Co+2] (stereo in doubt) [VB12, cobalamin] | 
4 | 98.92% | 98.97% | 99.1% | 98.94% | 8 | 7 | 7 | 7 | 98.79% | 98.46% | 98.97% | 98.94% | 5 | 5.5 | 5.5 | 5.5 | Cc1ncc(C[n+]2csc(CCO)c2C)c(N)n1 [VB1, thiamine] | Purity (radiochemical purity) ([1]; [^18F]PI-2620, 2 nM phosphate buffer and 10% ethanol, vitamin 0.78 mg/mL, 0 hr): 99.66%; Purity (radiochemical purity) ([1]; [^18F]PI-2620, 2 nM phosphate buffer and 10% ethanol, vitamin 0.78 mg/mL, 2 hr): 99.21%; Purity (radiochemical purity) ([1]; [^18F]PI-2620, 2 nM phosphate buffer and 10% ethanol, vitamin 0.78 mg/mL, 4 hr): 97.63%; Purity (radiochemical purity) ([1]; [^18F]PI-2620, 2 nM phosphate buffer and 10% ethanol, vitamin 0.78 mg/mL, 6 hr): 97.12%; PH (paper) ([2]; 2 nM phosphate buffer and 10% ethanol, vitamin 0.78 mg/mL, 0 hr): 6; PH (paper) ([2]; 2 nM phosphate buffer and 10% ethanol, vitamin 0.78 mg/mL, 2 hr): 6; PH (paper) ([2]; 2 nM phosphate buffer and 10% ethanol, vitamin 0.78 mg/mL, 4 hr): 6; PH (paper) ([2]; 2 nM phosphate buffer and 10% ethanol, vitamin 0.78 mg/mL, 6 hr): 6
5 | 98.92% | 99.14% | 98.8% | 98.2% | 6 | 6 | 6 | 6 | 98.06% | 95.43% | 92.46% | 87.76% | 6 | 6 | 6 | 6 | Nc1ncnc2c1ncn2[C@@H]1O[C@H](COP(=O)(O)O)[C@@H](O)[C@H]1O [VB8, adenosine phosphate] | 
6 | 99.15% | 98.71% | 98.83% | 98.73% | 7 | 6 | 7 | 7 | 98.01% | 94.44% | 91.25% | 86.09% | 6 | 6 | 6 | 6 | Nc1ccc(C(=O)O)cc1 [VB10, 4-aminobenzoic acid] | 
